Paper PMC3898116, “FGT-1 is the major glucose transporter in C. elegans and is central to aging pathways” (Biochemical Journal, 2013)

Biological target: T1, hGLUT1 (Homo sapiens, UniProt P11166)
T1 construct: gene SLC2A1; untagged, expressed in Xenopus laevis oocytes from cRNA
T1 sequence (P11166 1-492): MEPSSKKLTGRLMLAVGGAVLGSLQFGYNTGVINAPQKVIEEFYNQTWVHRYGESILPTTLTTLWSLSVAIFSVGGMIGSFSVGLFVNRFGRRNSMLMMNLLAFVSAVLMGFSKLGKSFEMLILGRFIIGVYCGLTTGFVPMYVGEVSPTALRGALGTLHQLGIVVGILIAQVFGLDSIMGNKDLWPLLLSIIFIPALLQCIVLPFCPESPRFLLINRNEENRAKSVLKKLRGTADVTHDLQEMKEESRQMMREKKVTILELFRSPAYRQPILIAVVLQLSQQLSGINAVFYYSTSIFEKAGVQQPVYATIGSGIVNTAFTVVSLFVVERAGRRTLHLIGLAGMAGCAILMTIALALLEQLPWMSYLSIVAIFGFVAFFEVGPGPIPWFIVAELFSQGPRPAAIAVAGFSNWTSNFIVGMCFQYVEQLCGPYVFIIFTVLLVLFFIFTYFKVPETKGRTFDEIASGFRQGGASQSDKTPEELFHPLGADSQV
Experiment: […]glucose uptake in Xenopus oocytes
Assay type: cell-based
Conditions: incomplete ND96 buffer, 60 min uptake; labelled compound

## OC[C@H]1OC(O)[C@H](O)[C@@H](O)[C@@H]1O (stereo partly drawn) [D-glucose]
  [14C]glucose uptake in Xenopus oocytes: These proteins transport glucose at levels that are comparable with GLUT1 expressed in the same system
